Test results reported in patent publication US12466821B2 (Novartis AG, priority 2018, dated 2025).

Experiments:
[1] = test system: Luciferase-encoding HCMV, AD169 strain; experiment: CMV Luciferase assay (cellular herpesvirus replication); format: cell-based; settings: Human betaherpesvirus 5, AD169, read-out: CMV-Luc Cellular EC50
How it was run: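 Neonatal human dermal fibroblasts were pretreated 1 h with compound (final 0.0159–50 μM or 0.00318–10 μM, 0.5% DMSO), then infected at MOI 1 with AD169 carrying pp28-promoter luciferase. After 72 h at 37 °C, Renilla-Glo luminescence normalized to no-virus and virus-only controls; EC50 by 4-parameter logistic model.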

[2] = biological target: human CMV DNA polymerase UL54 (Human cytomegalovirus (strain AD169) (HHV-5) (Human herpesvirus 5), UniProt P08546); experiment: CMV polymerase biochemical assay (molecular beacon-based)
How it was run: (§1)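 Readout was beacon fluorescence (ex 480, em 535 nm), used to derive IC50. Each dNTP was at 1.25 uM, with 200 nM primer and 100 nM beacon, after a 30-min RT inhibitor preincubation. Enzyme was 625 pM for HSV UL30 (20 min RT reaction) or 100 pM for CMV UL54 (60 min RT), both sf9-expressed MBP fusions, in pH 7.5 Tris buffer with MgCl2.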

[3] = biological target: human HSV DNA polymerase UL30 (Human herpesvirus 1 (strain 17) (HHV-1) (Human herpes simplex virus 1), UniProt P04293); experiment: HSV polymerase biochemical assay (molecular beacon-based)
How it was run: as §1

Row | SMILES | EC50 [1] [nM] | IC50 [2] [nM] | IC50 [3] [nM]
1 | CS(=O)(=O)C1(CN2CCn3c(ccc(C(=O)NCC4CCC(F)(F)CC4)c3=O)C2=O)CC1 [Example 43] | 6420 | 62.5 | 7860
2 | C[S@@](=N)(=O)C1(CN2CCn3c(ccc(C(=O)NCc4ccc(Cl)cc4)c3=O)C2=O)CC1 (single isomer, unassigned) [Example 96-1] | 244 | 12.6 | 372
3 | O=C(NCc1ccc(F)c(F)c1)c1ccc2n(c1=O)CCN(CC1(S(=O)(=O)C3CC3)CC1)C2=O [Example 3-3] | 64 | 7.9 | 149
4 | O=C(NCc1ccc(Cl)cc1)c1ccc2n(c1=O)CCN(CC1(N3CCCCC3=O)CC1)C2=O [Example 202] | 7650 | 305 | 6470
5 | N#Cc1ccc(CNC(=O)c2ccc3n(c2=O)CCN(CC2(S(=O)(=O)N4CC(F)(F)C4)CC2)C3=O)cc1 [Example 84-1, N-(4-cyanobenzyl)-2-((1-((3,3-difluoroazetidin-1-yl)sulfonyl)cyclopropyl)methyl)-1,6-dioxo-2,3,4,6-tetrahydro-1H-pyrido[1,2-a]pyrazine-7-carboxamide] | 69.6 | 3.9 | 102
6 | CN(CCN1CCn2c(c(CCCO)cc(C(=O)NCc3ccc(Cl)cc3)c2=O)C1=O)S(C)(=O)=O [Example 157, N-(4-chlorobenzyl)-9-(3-hydroxypropyl)-2-(2-(N-methylmethylsulfonamido)ethyl)-1,6-dioxo-1,3,4,6-tetrahydro-2H-pyrido[1,2-a]pyrazine-7-carboxamide] | 7720 | 223 | 1800
7 | CN(CCN1CCn2c(c(C(F)F)cc(C(=O)NCc3ccc(Cl)cc3)c2=O)C1=O)S(C)(=O)=O [Example 143, N-(4-chlorobenzyl)-9-(difluoromethyl)-2-(2-(N-methylmethylsulfonamido)ethyl)-1,6-dioxo-1,3,4,6-tetrahydro-2H-pyrido[1,2-a]pyrazine-7-carboxamide] | 30600 | 649 | 6310
8 | N#Cc1ccc(CNC(=O)c2ccc3n(c2=O)CCN(CC2(S(=O)(=O)C4(CO)CC4)CC2)C3=O)cc1F [Example 12] | 19.7 | 0.4 | 23.5
9 | O=C(NCc1ccc(Cl)cc1)c1cc(C(F)(F)F)c2n(c1=O)CCN(CCN1CCCS1(=O)=O)C2=O [Example 147] | 21400 | 558 | 5050
10 | CS(=O)(=O)C1(CN2CCn3c(ccc(C(=O)NCc4ccc(F)cc4)c3=O)C2=O)CC1 [Example 47] | 783 | 20 | 393
11 | CN(CCN1CCn2c(c(CF)cc(C(=O)NCc3ccc(Cl)cc3)c2=O)C1=O)S(C)(=O)=O [Example 140, N-(4-chlorobenzyl)-9-(fluoromethyl)-2-(2-(N-methylmethylsulfonamido)ethyl)-1,6-dioxo-1,3,4,6-tetrahydro-2H-pyrido[1,2-a]pyrazine-7-carboxamide] | 2220 | 242 | 4260
12 | COCC(C)(C)S(=O)(=O)C1(CN2CCn3c(ccc(C(=O)NCc4ccc(C#N)cc4)c3=O)C2=O)CC1 [Example 187] | 14.9 | 0.4 | 52.9
13 | N#Cc1ccc(CNC(=O)c2ccc3n(c2=O)CCN(CC2(S(=O)(=O)C4CCOCC4)CC2)C3=O)cc1 [Example 105-2] | 178 | 2.5 | 64.3
14 | CNS(=O)(=O)C1(CN2CCn3c(ccc(C(=O)NCc4ccc(Cl)cc4)c3=O)C2=O)CC1 [Example 74-2] | 14.5 | 1.6 | 52.1
15 | C[S@+]([O-])C1(CN2CCn3c(ccc(C(=O)NCc4ccc(C#N)cc4)c3=O)C2=O)CC1 [Example 68-3] | 7560 | 198 | 9190
16 | CC(=O)NS(=O)(=O)C1(CN2CCn3c(ccc(C(=O)NCc4ccc(Cl)cc4)c3=O)C2=O)CC1 [Example 72-3, 2-((1-(N-acetylsulfamoyl)cyclopropyl)methyl)-N-(4-chlorobenzyl)-1,6-dioxo-2,3,4,6-tetrahydro-1H-pyrido[1,2-a]pyrazine-7-carboxamide] | 805 | 0.8 | 31.1
17 | CC(C)(C#N)S(=O)(=O)C1(CN2CCn3c(ccc(C(=O)NCc4ccc(Cl)cc4)c3=O)C2=O)CC1 [Example 185, N-(4-chlorobenzyl)-2-((1-((2-cyanopropan-2-yl)sulfonyl)cyclopropyl)methyl)-1,6-dioxo-1,3,4,6-tetrahydro-2H-pyrido[1,2-a]pyrazine-7-carboxamide] | 18.9 | 1.2 | 29.5
18 | O=C(NCc1ccc(Cl)cc1)c1ccc2n(c1=O)CCN(CC1(S(=O)(=O)C3COC3)CC1)C2=O [Example 30] | 36.3 | 1.5 | 38

Row | SMILES | EC50 [1] [nM] | IC50 [2] [nM] | IC50 [3] [nM]
19 | CC(C)(CO)S(=O)(=O)C1(CN2CCn3c(ccc(C(=O)NCc4ccc(C#N)nc4)c3=O)C2=O)CC1 [Example 183] | 145 | 2.9 | 36.7
20 | CS(=O)(=O)C1(CN2CCn3c(ccc(C(=O)NCc4ccc(Cl)cc4)c3=O)C2=O)CC1 [Example 48] | 33.3 | 3 | 51.3
21 | O=C(NCc1ccc(Cl)cc1)c1ccc2n(c1=O)CCN(CC1(N3CCOCC3=O)CC1)C2=O [Example 203] | 10000 | 410 | 12200
22 | N#Cc1ccc(CNC(=O)c2ccc3n(c2=O)CCN(CC2(S(=O)(=O)N4CCC4)CC2)C3=O)cc1F [Example 88-1, 2-((1-(azetidin-1-ylsulfonyl)cyclopropyl)methyl)-N-(4-cyano-3-fluorobenzyl)-1,6-dioxo-2,3,4,6-tetrahydro-1H-pyrido[1,2-a]pyrazine-7-carboxamide] | 24.2 | 2 | 65.1
23 | CN(CCN1CCn2c(c(C#N)cc(C(=O)NCc3ccc(Cl)cc3)c2=O)C1=O)S(C)(=O)=O [Example 127] | 19900 | 545 | 4790
24 | N#Cc1ccc(CNC(=O)c2cc(F)c3n(c2=O)CCN(CC2(S(=O)(=O)C4CC4)CC2)C3=O)cc1F [Example 162] | 41.3 | 1.9 | 79.6
25 | COc1cc(CNC(=O)c2ccc3n(c2=O)CCN(CC2(S(=O)(=O)C4CC4)CC2)C3=O)ccc1Cl [Example 3-5] | 211 | 2 | 117
26 | N#Cc1ccc(CNC(=O)c2ccc3n(c2=O)CCN(CCS(=O)(=O)C2CC2)C3=O)cc1F [Example 195] | 2610 | 67.1 | 649
27 | C[C@H](NC(=O)c1ccc2n(c1=O)CCN(CC1(S(C)(=O)=O)CC1)C2=O)c1ccc(Cl)cc1 [Example 44] | 10000 | 763 | 62900
28 | C[S@@+]([O-])C1(CN2CCn3c(ccc(C(=O)NCc4ccc(Cl)cc4)c3=O)C2=O)CC1 (single isomer, unassigned) [Example 67-2, N-(4-chlorobenzyl)-2-((1-(methylsulfinyl)cyclopropyl)methyl)-1,6-dioxo-2,3,4,6-tetrahydro-1H-pyrido[1,2-a]pyrazine-7-carboxamide] | 478 | 35.8 | 1120
29 | CC(C)S(=O)(=O)C1(CN2CCn3c(ccc(C(=O)NCc4ccc(Cl)cc4)c3=O)C2=O)CC1 [Example 31] | 12.4 | 0.9 | 30.6
30 | CCc1cc(C(=O)NCc2ccc(Cl)cc2)c(=O)n2c1C(=O)N(CC1(S(C)(=O)=O)CC1)CC2 [Example 136] | 86.7 | 2.5 | 136
31 | N#Cc1ccc(CNC(=O)c2ccc3n(c2=O)CCN(CC2(S(=O)(=O)C4CCCC4)CC2)C3=O)cc1 [Example 22] | 88.8 | 1.9 | 56.3
32 | CS(=O)(=O)CCCN1CCn2c(c(N3CCCC3)cc(C(=O)NCc3ccc(Cl)cc3)c2=O)C1=O [Example 158, N-(4-chlorobenzyl)-2-(3-(methylsulfonyl)propyl)-1,6-dioxo-9-(pyrrolidin-1-yl)-1,3,4,6-tetrahydro-2H-pyrido[1,2-a]pyrazine-7-carboxamide] | 13300 | 370 | 4090
33 | O=C(NCc1ccc(Cl)cc1)c1ccc2n(c1=O)CCN(CC1(NS(=O)(=O)C3CC3)CC1)C2=O [Example 200] | 6770 | 232 | 2560
34 | N#Cc1ccc(CNC(=O)c2ccc3n(c2=O)CCN(CC2(S(=O)(=O)C4CC(F)(F)C4)CC2)C3=O)cc1 [Example 83, N-(4-cyanobenzyl)-2-((1-((3,3-difluorocyclobutyl)sulfonyl)cyclopropyl)methyl)-1,6-dioxo-2,3,4,6-tetrahydro-1H-pyrido[1,2-a]pyrazine-7-carboxamide] | 146 | 4.4 | 101
35 | CC(C)(C)S(=O)(=O)C1(CN2CCn3c(ccc(C(=O)NCc4ccc(C#N)cc4)c3=O)C2=O)CC1 [Example 27] | 6.8 | 0.3 | 25.2
36 | C[C@@H](CCO)S(=O)(=O)C1(CN2CCn3c(ccc(C(=O)NCc4ccc(Cl)cc4)c3=O)C2=O)CC1 (single isomer, unassigned) [Example 7, N-(4-chlorobenzyl)-2-((1-((4-hydroxybutan-2-yl)sulfonyl)cyclopropyl)methyl)-1,6-dioxo-2,3,4,6-tetrahydro-1H-pyrido[1,2-a]pyrazine-7-carboxamide] | 32.8 | 1 | 35.6
